# Assay results as given in patent US11414425B2 (priority 2018, dated 2022).
# Columns and labels:
# α5β3γ2 GABAA receptors = α5β3γ2 GABAA receptors (Homo sapiens, UniProt P18507+P31644); test: [3H]Ro15-1788 binding, membranes of Ltk cells stably expressing α5β3γ2 GABAA receptors; conditions: ranges; inhibition of [3H]Ro15-1788 binding
# GABAA receptors (α5β2γ2) = target: T1, GABAA receptors (α5β2γ2) (Homo sapiens, UniProt P18507+P31644); test: Positive allosteric modulator activity: potentiation of EC20 GABA current in oocytes; type: cell-based; conditions: read-out: GABA α5 Functional Data (potentiation of EC20 GABA); @ 100 nM; ranges
# T1 construct: expressed in transfected cells
# T1 sequence (P31644 32-462): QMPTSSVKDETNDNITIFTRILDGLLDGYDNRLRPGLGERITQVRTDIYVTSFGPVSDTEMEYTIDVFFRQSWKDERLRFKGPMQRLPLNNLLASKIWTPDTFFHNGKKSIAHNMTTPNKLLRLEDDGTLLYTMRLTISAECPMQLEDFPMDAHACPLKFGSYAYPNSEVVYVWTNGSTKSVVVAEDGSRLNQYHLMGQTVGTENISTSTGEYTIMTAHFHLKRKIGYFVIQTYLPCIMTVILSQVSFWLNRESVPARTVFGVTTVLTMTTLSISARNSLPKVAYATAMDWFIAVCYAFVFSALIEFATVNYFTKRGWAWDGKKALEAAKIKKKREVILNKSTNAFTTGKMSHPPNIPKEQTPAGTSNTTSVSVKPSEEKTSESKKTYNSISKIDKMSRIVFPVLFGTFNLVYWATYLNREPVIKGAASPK
# T1 sequence (P47870 25-512, further chain): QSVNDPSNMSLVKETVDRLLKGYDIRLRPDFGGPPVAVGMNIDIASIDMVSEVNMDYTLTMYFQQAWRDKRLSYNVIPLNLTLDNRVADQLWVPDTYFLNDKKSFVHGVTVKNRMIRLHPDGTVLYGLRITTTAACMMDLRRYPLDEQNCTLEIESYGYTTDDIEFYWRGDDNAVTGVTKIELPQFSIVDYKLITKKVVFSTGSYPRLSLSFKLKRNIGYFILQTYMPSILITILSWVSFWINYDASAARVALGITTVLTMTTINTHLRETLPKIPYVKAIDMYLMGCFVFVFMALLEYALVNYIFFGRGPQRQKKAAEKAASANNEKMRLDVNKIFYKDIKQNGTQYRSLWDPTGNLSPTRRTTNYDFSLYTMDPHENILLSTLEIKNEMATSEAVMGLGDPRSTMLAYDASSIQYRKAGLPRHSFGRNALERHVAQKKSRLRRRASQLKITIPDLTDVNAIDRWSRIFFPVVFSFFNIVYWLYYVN
# T1 sequence (P18507 40-475): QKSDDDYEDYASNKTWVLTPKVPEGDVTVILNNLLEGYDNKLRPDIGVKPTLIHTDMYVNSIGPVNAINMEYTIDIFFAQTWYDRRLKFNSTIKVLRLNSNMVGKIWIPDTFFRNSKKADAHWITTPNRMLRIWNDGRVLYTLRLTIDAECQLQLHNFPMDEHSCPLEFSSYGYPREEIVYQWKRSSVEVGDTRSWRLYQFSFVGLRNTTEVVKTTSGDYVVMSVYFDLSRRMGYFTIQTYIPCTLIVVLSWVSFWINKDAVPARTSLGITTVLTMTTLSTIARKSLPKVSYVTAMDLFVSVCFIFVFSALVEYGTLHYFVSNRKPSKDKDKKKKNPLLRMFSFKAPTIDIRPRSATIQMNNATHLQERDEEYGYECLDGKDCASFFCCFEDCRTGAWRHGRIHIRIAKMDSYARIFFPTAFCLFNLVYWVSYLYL
# Description: On day 1, 1 ng/32 nL of GABAA α5β2γ2 cDNA was injected into one oocyte. Test starts on day 2. The cDNA injected to the oocytes was a mix of alpha, beta and gamma, their ratio is 1:1:10 (by weight) and the total weight of the mixed 3 subunits to be injected in one oocyte was 1 ng in 32 nl volume. The injected oocytes can also be tested on day 3. In such case, the cDNA amount injected to the oocytes should be reduced by 20%.
# 1). 8 oocytes were placed in 8 chambers of OpusXpress and superfused with Modified Barth's Saline (MBS) at 3 mL/min. Glass electrodes back-filled with 3M KCl (0.5-3 megaohms) were used.
# 1). New oocytes were used to run new test.
# 3). […] Oocytes were washed with MBS for 5-10 min.
# 4). […] Itest was divided by IGABA to obtain potentiation (%).
# Test Compounds at Multiple Doses • 1). Repeat the above steps 1), 2) and 3) in the control test. • 2). […] Divide Itest by IGABA to obtain potentiation (%). • 3). Discard all tested oocytes, new oocytes were used and the above steps 1) and 2) were repeated to test second concentration of the same compound. Each oocyte was used for only one concentration test for a single test compound. The steps were repeated for other test compounds.
# Sequence of α5β3γ2 GABAA receptors (P31644 32-462): as the sequence (P31644 32-462) above
# Sequence of α5β3γ2 GABAA receptors (P28472 26-473 partner): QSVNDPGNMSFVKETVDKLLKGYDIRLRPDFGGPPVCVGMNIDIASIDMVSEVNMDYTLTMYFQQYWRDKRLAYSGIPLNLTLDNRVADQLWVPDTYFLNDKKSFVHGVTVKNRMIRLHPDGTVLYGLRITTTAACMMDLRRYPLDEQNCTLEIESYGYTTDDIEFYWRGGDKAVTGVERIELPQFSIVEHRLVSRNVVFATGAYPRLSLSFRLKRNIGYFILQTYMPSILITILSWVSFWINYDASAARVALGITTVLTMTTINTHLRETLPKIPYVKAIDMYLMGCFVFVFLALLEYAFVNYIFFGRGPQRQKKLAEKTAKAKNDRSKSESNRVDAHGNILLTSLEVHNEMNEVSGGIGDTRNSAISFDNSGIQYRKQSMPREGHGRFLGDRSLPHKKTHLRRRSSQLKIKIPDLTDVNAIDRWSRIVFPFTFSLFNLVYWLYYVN
# Sequence of α5β3γ2 GABAA receptors (P18507 40-475): as the sequence (P18507 40-475) above
Structure (SMILES),Ki (α5β3γ2 GABAA receptors),activation at 0.1 µM (GABAA receptors (α5β2γ2))
COc1ccc2c(c1)-n1nncc1Cc1c(C3=NC[C@@H](c4ccccc4)O3)ncn1-2 [Compound 512],< 100 nM,5 to 20%
COCc1nnc2n1Cc1c(C3=NC(C)CO3)ncn1-c1ccc(Cl)cc1-2 (stereo not shown) [Compound 243],< 100 nM,20 to 50%
COCc1nnn2c1Cc1c(C3=NC[C@H](c4ccc(Cl)cc4)O3)ncn1-c1ccc(OC)cc1-2 [Compound 636],< 100 nM,5 to 20%
COCc1nnc2n1Cc1c(C#Cc3cnc(OC)c(C)c3)ncn1-c1ccc(Cl)cc1-2 [Compound 698],< 100 nM,5 to 20%
COCc1nnc2n1Cc1c(C3=NC[C@H](c4ccc(Cl)cc4)O3)ncn1-c1ccc(Cl)cc1-2 [Compound 718],< 100 nM,20 to 50%
COCc1nnn2c1Cc1c(C#Cc3cnc(OC)s3)ncn1-c1ccc(Cl)cc1-2 [Compound 644],< 100 nM,20 to 50%
COCc1nnc2n1Cc1c(C#Cc3ccc(=O)n(C)c3)ncn1-c1ccc(Cl)cc1-2 [Compound 677],< 100 nM,5 to 20%
COCc1nnc2n1Cc1c(C#Cc3ccnc(OC)c3)ncn1-c1ccc(OC)cc1-2 [Compound 567],< 100 nM,5 to 20%
COCc1nnc2n1Cc1c(C#Cc3ccc(C(C)C)cc3)ncn1-c1ccc(OC)cc1-2 [Compound 716],< 100 nM,5 to 20%
COc1ccc2c(c1)-n1nncc1Cc1c(C3=NCC(c4ccccn4)O3)ncn1-2 (stereo not shown) [Compound 628],< 100 nM,20 to 50%
CC(C)(C)C#Cc1ncn2c1Cc1cnnn1-c1cc(Cl)ccc1-2 [Compound 534],< 100 nM,5 to 20%
COc1ccc2c(c1)-n1nncc1Cc1c(C3=N[C@H](c4ccccc4)CO3)ncn1-2 [Compound 290],< 100 nM,20 to 50%
CC(C)(C)c1nc(-c2ncn3c2Cc2cnnn2-c2cc(Cl)ccc2-3)no1 [Compound 536],< 100 nM,20 to 50%
COc1ccc(C#Cc2ncn3c2Cn2c(COC(F)F)nnc2-c2cc(Cl)ccc2-3)cn1 [Compound 616],< 100 nM,5 to 20%
Clc1ccc2c(c1)-n1nncc1Cc1c(C3=NC[C@H](c4ccccc4)O3)ncn1-2 [Compound 513],< 100 nM,20 to 50%
Clc1ccc2c(c1)-n1nncc1Cc1c(C3=NCC(c4ccccn4)O3)ncn1-2 (stereo not shown) [Compound 627],< 100 nM,20 to 50%
CCc1cncc(C#Cc2ncn3c2Cn2c(COC)nnc2-c2cc(Cl)ccc2-3)c1 [Compound 604],< 100 nM,> 50%
Cc1noc(-c2ncn3c2Cc2cnnn2-c2cc(Br)ccc2-3)n1 [Compound 473],< 100 nM,5 to 20%
COCc1nnc2n1Cc1c(C#Cc3ccc4nccn4c3)ncn1-c1ccc(Cl)cc1-2 [Compound 678],< 100 nM,20 to 50%
C#Cc1ccc2c(c1)-c1nnc(COC)n1Cc1c(C3=N[C@@H](c4ccccc4)CO3)ncn1-2 [Compound 301],< 100 nM,5 to 20%
CCc1cncc(C#Cc2ncn3c2Cc2c(COC)nnn2-c2cc(Cl)ccc2-3)c1 [Compound 638],< 100 nM,> 50%
COCc1nnc2n1Cc1c(C#Cc3cnc(C)[nH]3)ncn1-c1ccc(Cl)cc1-2 [Compound 681],< 100 nM,> 50%
COCc1nnc2n1Cc1c(C#Cc3ccc(C)nc3)ncn1-c1ccc(OC)cc1-2 [Compound 561],< 100 nM,20 to 50%
COCc1nnc2n1Cc1c(C#Cc3ccc(OC)nc3)ncn1-c1ccc(Cl)cc1-2 [Compound 527],< 100 nM,20 to 50%
FC(F)(F)c1ccc2c(c1)-n1nncc1Cc1c(C#CC3(c4ccccc4)CC3)ncn1-2 [Compound 503],< 100 nM,5 to 20%

Structure (SMILES),Ki (α5β3γ2 GABAA receptors),activation at 0.1 µM (GABAA receptors (α5β2γ2))
COc1ccc2c(c1)-n1nncc1Cc1c(C#Cc3ccc(OC)nc3)ncn1-2 [Compound 530],< 100 nM,5 to 20%
COc1ccc2c(c1)-n1nncc1Cc1c(C3=NCC(c4ccncc4)O3)ncn1-2 (stereo not shown) [Compound 630],< 100 nM,20 to 50%
Cc1ncc(C#Cc2ncn3c2Cc2cnnn2-c2cc(Cl)ccc2-3)n1C [Compound 666],< 100 nM,20 to 50%
FC(F)(F)Oc1ccc2c(c1)-n1nncc1Cc1c(C3=N[C@H](c4ccccc4)CO3)ncn1-2 [Compound 507],< 100 nM,5 to 20%
COCc1nnc2n1Cc1c(C#Cc3cnccn3)ncn1-c1ccc(Cl)cc1-2 [Compound 576],< 100 nM,20 to 50%
COc1ccc(C#Cc2ncn3c2Cc2cnnn2-c2cc(OC)ccc2-3)nc1 [Compound 531],< 100 nM,5 to 20%
COCc1nnc2n1Cc1c(C#Cc3ncc(C)s3)ncn1-c1ccc(Cl)cc1-2 [Compound 607],< 100 nM,20 to 50%
COc1ccc2c(c1)-n1nncc1Cc1c(C3=N[C@H](c4cccc(Cl)c4)CO3)ncn1-2 [Compound 516],< 100 nM,5 to 20%
CCOC(=O)c1ncn2c1Cc1c(Cc3cccnc3)nnn1-c1cc(C)ccc1-2 [Compound 111],< 100 nM,20 to 50%
COCc1nnn2c1Cc1c(C#Cc3cncc(C)c3)ncn1-c1ccc(Cl)cc1-2 [Compound 639],< 100 nM,20 to 50%
COCc1nnc2n1Cc1c(C#Cc3cc(C)cnn3)ncn1-c1ccc(Cl)cc1-2 [Compound 609],100 to 1000 nM,20 to 50%
COCc1nnc2n1Cc1c(C#Cc3ccc(OC)nc3)ncn1-c1ccc(OC)cc1-2 [Compound 703],< 100 nM,20 to 50%
COCc1nnc2n1Cc1c(C#Cc3cnc(OC)s3)ncn1-c1ccc(OC)cc1-2 [Compound 619],< 100 nM,5 to 20%
COc1ccc2c(c1)-n1nncc1Cc1c(C3=N[C@@H](c4ccc(F)cc4)CO3)ncn1-2 [Compound 367],< 100 nM,5 to 20%
COc1ccc([C@@H]2COC(c3ncn4c3Cc3cnnn3-c3cc(Cl)ccc3-4)=N2)cc1 [Compound 521],< 100 nM,20 to 50%
COc1ccc2c(c1)-n1nncc1Cc1c(C3=NC[C@H](c4ccccc4)O3)ncn1-2 [Compound 511],< 100 nM,5 to 20%
COCc1nnc2n1Cc1c(C#Cc3cncc(C)c3)ncn1-c1ccc(Cl)cc1-2 [Compound 558],< 100 nM,5 to 20%
COCc1nnc2n1Cc1c(C#Cc3ccc(OC)cn3)ncn1-c1ccc(Cl)cc1-2 [Compound 528],< 100 nM,> 50%
COCc1nnn2c1Cc1c(C3=NC[C@H](c4ccc(Cl)cc4)O3)ncn1-c1ccc(Cl)cc1-2 [Compound 635],< 100 nM,5 to 20%
COc1ccc2c(c1)-n1nncc1Cc1c(C3=NCC(c4ncccc4OC)O3)ncn1-2 (stereo not shown) [Compound 632],< 100 nM,5 to 20%
Clc1ccc2c(c1)-n1nncc1Cc1c(C3=NC[C@@H](c4ccccc4)O3)ncn1-2 [Compound 514],< 100 nM,5 to 20%
COCc1nnc2n1Cc1c(C#Cc3cnc(C)n3C)ncn1-c1ccc(OC)cc1-2 [Compound 672],< 100 nM,> 50%
Clc1ccc2c(c1)-n1nncc1Cc1c(-c3noc(-c4ccccc4)n3)ncn1-2 [Compound 537],< 100 nM,20 to 50%
COCc1nnc2n1Cc1c(C#Cc3ccc(C)cn3)ncn1-c1ccc(OC)cc1-2 [Compound 562],< 100 nM,20 to 50%
Clc1cccc([C@@H]2COC(c3ncn4c3Cc3cnnn3-c3cc(Cl)ccc3-4)=N2)c1 [Compound 515],< 100 nM,5 to 20%
